Measurements reported in patent US11702403B2, “EAAT2 activators and methods of using thereof” (OHIO STATE INNOVATION FOUNDATION, priority 2018, dated 2023).
Where a name gives a salt, the structure may show the parent alone.

How the values were obtained:
[1] = tested on: human EAAT2; assay: EAAT2 protein levels in PA-EAAT2 cells by Western blot; assay type: cell-based; details: PA-EAAT2 cells, 24 hr; for Fold increase for EAAT2 at indicated concentration (maximum activity): EAAT2 protein relative to DMSO; for concentration that reaches maximum activity: tested 0.0375-10 μM
Method: Compounds were evaluated in PA-EAAT2 cells, a primary astrocyte stably expressing human EAAT2 mRNAs (Kong et al., J Clin Invest. 2014:1255-67). Cells were treated with compound at 0.0375, 0.075, 0.15, 0.3, 0.6, 1.25, 2.5, 5, 10 μM for 24 hr and then harvested for measuring EAAT2 protein levels by Western blot analysis.

[2] = tested on: CA3-CA1 LTP in the hippocampus; assay: Long-term potentiation (LTP) in acute hippocampal slices of treated wild-type mice; assay type: in vivo; details: 0.033, 0.33, and 3.3 mg/kg for seven days, vs vehicle
Method: Mice were treated with compound at 40 mg/kg (or as depicted) and forebrains were harvested for the gliosome preparation 24 hr (or as described) post-treatment. FIG. 2A: Western blots show dose-dependent increase of EAAT2 protein levels. FIG. 2B: Time-dependent fold increase in EAAT2 protein expression in response to compound treatment at 4 hours (1.54±0.13) and 24 hours (1.98±0.19) post-treatment. Quantification of EAAT2 expression time course (normalized to flotilin; n=4/group). Data represented as mean SEM and analyzed using one-way ANOVA with Tukey post-hoc test. *p<0.05, **p<0.01. FIG. 2C: Compound treatment enhances CA3-CA1 LTP in the hippocampus. Mice were treated with vehicle or compound for seven days and acute hippocampal sections were collected for LTP recordings. […] Data represented as mean SEM analyzed using one-way ANOVA with Bonferroni post-hoc tests. […]
At 24 hours post-treatment, mice were euthanized and forbrains were harvested. […] Acute hippocampal slices were then collected and assessed for changes in long-term potentiation (LTP).
Wild-type C57BL/6 mice (2-3 months old) were treated orally with compound 101 at 0.01, 0.033, 0.1, 0.33, 1, 3.33, 10, 20, 40, 60, and 100 mg/kg/day (voluntary ingestion of compound in honey) for seven or 28 days. […] Mice were then euthanized and acute hippocampal slices were collected and assessed for changes in long-term potentiation (LTP).

[3] = tested on: EAAT2; assay: EAAT2 protein levels in brains of wild-type C57BL/6 mice by Western blot; assay type: in vivo; details: oral 0.01-100 mg/kg/day for seven or 28 days
Method: Mice then were euthanized and brains were harvested for examining EAAT2 protein levels by Western blot analysis.
Wild-type C57BL/6 mice (2-3 months old) were treated orally with compound 101 at 0.01, 0.033, 0.1, 0.33, 1, 3.33, 10, 20, 40, 60, and 100 mg/kg/day (voluntary ingestion of compound in honey) for seven or 28 days. Mice then were euthanized and brains were harvested for examining EAAT2 protein levels by Western blot analysis. […] To determine the functional consequences of the increased EAAT2 to the synaptic plasticity, wild-type mice were treated with vehicle or compound 101 at 0.033, 0.33, and 3.3 mg/kg for seven days. Mice were then euthanized and acute hippocampal slices were collected and assessed for changes in long-term potentiation (LTP).

Structure (SMILES)	Fold increase for EAAT2 at indicated concentration (maximum activity) [1] [fold]	concentration that reaches maximum activity [1] [µM]	CA1 field potential responses to stimulation of CA3 afferents (LTP) [2]	EAAT2 protein levels in mouse brains [3]
CN(C)CCn1cc(-c2ccccn2)ncc1=O [Compound 214, 1-(2-(Dimethylamino)ethyl)-5-(pyridin-2-yl)pyrazin-2(1H)-one hydrochloride]	1.5 ± 0.1	2.5	–	–
COc1ccc(-c2ccc(=O)n(CCN(C)C)n2)cc1 [Compound 208, 2-(2-(Dimethylamino)ethyl)-6-(4-methoxyphenyl)pyridazin-3(2H)-one hydrochloride]	1.7 ± 0.2	0.3	–	–
Cc1cc(-c2ccccn2)nn(CCN(C)C)c1=O [Compound 195, 2-(2-(Dimethylamino)ethyl)-4-methyl-6-(pyridin-2-yl)pyridazin-3(2H)-one hydrochloride]	2.5 ± 0.2	0.3	–	–
CC(c1ccccn1)n1nc(-c2ccccn2)ccc1=O (stereo not shown) [Compound 198, 6-(Pyridin-2-yl)-2-(1-(pyridin-2-yl)ethyl)pyridazin-3(2H)-one]	2.0 ± 0.3	0.15	–	–
COc1cccc(-c2ccc(=O)n(CCN(C)C)n2)c1 [Compound 207, 2-(2-(Dimethylamino)ethyl)-6-(3-methoxyphenyl)pyridazin-3(2H)-one hydrochloride]	3.5 ± 0.3	0.15	–	–
CN(C)CCCn1nc(-c2ccccn2)ccc1=O [Compound 166, 2-(3-(Dimethylamino)propyl)-6-(pyridin-2-yl)pyridazin-3(2H)-one hydrochloride]	2.0 ± 0.2	0.3	–	–
Cc1cc(=O)n(CCN(C)C)nc1-c1ccccn1 [Compound 196, N,N-2-(2-(dimethylamino)ethyl)-5-methyl-6-(pyridin-2-yl)pyridazin-3(2H)-one hydrochloride]	4.2 ± 0.2	0.6	–	–
CNC(=O)CCn1nc(-c2ccccn2)ccc1=O [Compound 123, N-Methyl-3-(6-oxo-3-(pyridin-2-yl)pyridazin-1(6H)-yl)propanamide]	2.5 ± 0.2	0.3	–	–
COc1ccccc1-c1ccc(=O)n(CCN(C)C)n1 [Compound 206, 2-(2-(Dimethylamino)ethyl)-6-(2-methoxyphenyl)pyridazin-3(2H)-one hydrochloride]	2.4 ± 0.1	0.15	–	–
CNCCn1nc(-c2ccccn2)ccc1=O [Compound 101, 2-(2-(Methylamino)ethyl)-6-(pyridin-2-yl)pyridazin-3(2H)-one hydrochloride]	2.6 ± 0.2	0.3	significantly increased responses	dose-dependently increased
COCCn1nc(-c2ccccn2)ccc1=O [Compound 172, 2-(2-Methoxyethyl)-6-(pyridin-2-yl)pyridazin-3(2H)-one]	2.9 ± 0.1	0.3	–	–
O=c1ccc(-c2ccccn2)nn1Cc1ncco1 [Compound 146, 2-(Oxazol-2-ylmethyl)-6-(pyridin-2-yl)pyridazin-3(2H)-one]	2.6 ± 0.2	2.5	–	–
Cn1ccnc1Cn1nc(-c2ccccn2)ccc1=O [Compound 201]	2.5 ± 0.4	0.6	–	–
CN(C)CCn1cc(-c2ccccn2)ccc1=O [Compound 213, 1′-(2-(Dimethylamino)ethyl)-[2,3′-bipyridin]-6′(1′H)-one hydrochloride]	2.3 ± 0.1	0.6	–	–
CN(CCn1nc(-c2ccccn2)ccc1=O)c1ccccc1 [Compound 110, 2-(2-(Methyl(phenyl)amino)ethyl)-6-(pyridin-2-yl)pyridazin-3(2H)-one]	2.3 ± 0.3	0.6	–	–
O=C1CCCN1CCn1nc(-c2ccccn2)ccc1=O [Compound 133, 2-(2-(2-Oxopyrrolidin-1-yl)ethyl)-6-(pyridin-2-yl)pyridazin-3(2H)-one]	1.9 ± 0.3	2.5	–	–
CN(C)CCOc1ccccc1NC(=O)Cn1nc(-c2ccccn2)ccc1=O [Compound 203, N-(2-(2-(Dimethylamino)ethoxy)phenyl)-2-(6-oxo-3-(pyridin-2-yl)pyridazin-1(6H)-yl)acetamide]	2.0 ± 0.2	0.6	–	–
O=c1ccc(-c2ccccn2)nn1CCN1CCOCC1 [Compound 126, 2-(2-Morpholinoethyl)-6-(pyridin-2-yl)pyridazin-3(2H)-one hydrochloride]	2.2 ± 0.5	0.3	–	–
NCCn1nc(-c2ccccn2)ccc1=O [Compound 102, 2-(2-Aminoethyl)-6-(pyridin-2-yl)pyridazin-3(2H)-one hydrochloride]	2.8 ± 0.3	1.25	–	–
